Measurements: patent publication US20230301300A1, “HERBICIDAL COMPOSITIONS” (SYNGENTA CROP PROTECTION AG, priority 2020, published 2023)

Experiments:
Experiment in all cases: B2 Post-Emergence Efficacy - Test 2
Type in all cases: in vivo
[1] = tested on: Alopecurus myosuroides (ALOMY); conditions: 15 days after application, 0-100 scale
Method in brief: (§1)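 Herbicidal effect was rated visually from 0 (no damage) to 100 (complete kill) fifteen days after treatment. Seedlings had been raised for 12 days under controlled glasshouse conditions and then sprayed with the active ingredient formulated in IF50, diluted in water with 0.2% v/v Genapol X080 adjuvant.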

[2] = tested on: Amaranthus retroflexus (AMARE); conditions: 15 days after application, 0-100 scale
Method in brief: as §1

[3] = tested on: Avena fatua (AVEFA); conditions: 15 days after application, 0-100 scale
Method in brief: as §1

[4] = tested on: Beta vulgaris (BEAVA); conditions: 15 days after application, 0-100 scale
Method in brief: as §1

[5] = tested on: Brassica napus (BRSNN); conditions: 15 days after application, 0-100 scale
Method in brief: as §1

[6] = tested on: Bromus tectorum (BROTE); conditions: 15 days after application, 0-100 scale
Method in brief: as §1

[7] = tested on: Chenopodium album (CHEAL); conditions: 15 days after application, 0-100 scale
Method in brief: as §1

[8] = tested on: Echinochloa crus galli (ECHCG); conditions: 15 days after application, 0=no damage, 100=total kill
Method in brief: as §1

[9] = tested on: Eleisine indica (ELEIN); conditions: 15 days after application, 0=no damage, 100=total kill
Method in brief: as §1

[10] = tested on: Euphorbia hetrophylla (EPHHL); conditions: 15 days after application, 0-100 scale
Method in brief: as §1

[11] = tested on: Glycine max (GLXMA); conditions: 15 days after application; for Herbicidal activity GLXMA: 0-100 scale; for Herbicidal activity on a 0-100 scale, GLXMA: 0=no damage, 100=total kill
Method in brief: as §1

[12] = tested on: Ipomoea hederacea (IPOHE); conditions: 15 days after application, 0-100 scale
Method in brief: as §1

[13] = tested on: Panicum miliaceum (PANMI); conditions: 15 days after application, 0=no damage, 100=total kill
Method in brief: as §1

[14] = tested on: Sida spinosa (SIDSP); conditions: 15 days after application, 0-100 scale
Method in brief: as §1

[15] = tested on: Sorghum bicolour (SORVU); conditions: 15 days after application, 0=no damage, 100=total kill
Method in brief: as §1

[16] = tested on: Stellaria media (STEME); conditions: 15 days after application, 0-100 scale
Method in brief: as §1

[17] = tested on: Veronica persica (VERPE); conditions: 15 days after application, 0-100 scale
Method in brief: as §1

[18] = tested on: Xanthium strumarium (XANST); conditions: 15 days after application, 0-100 scale
Method in brief: as §1

Cc1nn(C)c(=O)c(-c2c(F)ccc(Cl)c2CCc2ccc(C#N)cc2)c1O [Compound 1.024, 4-[3-chloro-6-fluoro-2-[2-[4-(cyano)phenyl]ethyl]phenyl]-5-hydroxy-2,6-dimethyl-pyridazin-3-one]
Herbicidal activity ALOMY ([1]; 15 g/Ha): 10
Herbicidal activity ALOMY ([1]; 30 g/Ha): 30
Herbicidal activity ALOMY ([1]; 60 g/Ha): 50
Herbicidal activity ALOMY ([1]; 125 g/Ha): 70
Herbicidal activity ALOMY ([1]; 250 g/Ha): 70
Herbicidal activity ALOMY ([1]; 500 g/Ha): 70
Herbicidal activity AMARE ([2]; 15 g/Ha): 80
Herbicidal activity AMARE ([2]; 30 g/Ha): 90
Herbicidal activity AMARE ([2]; 60 g/Ha): 90
Herbicidal activity AMARE ([2]; 125 g/Ha): 100
Herbicidal activity AMARE ([2]; 250 g/Ha): 100
Herbicidal activity AMARE ([2]; 500 g/Ha): 100
Herbicidal activity AVEFA ([3]; 15 g/Ha): 10
Herbicidal activity AVEFA ([3]; 30 g/Ha): 20
Herbicidal activity AVEFA ([3]; 60 g/Ha): 30
Herbicidal activity AVEFA ([3]; 125 g/Ha): 60
Herbicidal activity AVEFA ([3]; 250 g/Ha): 70
Herbicidal activity AVEFA ([3]; 500 g/Ha): 80
Herbicidal activity BEAVA ([4]; 15 g/Ha): 70
Herbicidal activity BEAVA ([4]; 30 g/Ha): 70
Herbicidal activity BEAVA ([4]; 60 g/Ha): 80
Herbicidal activity BEAVA ([4]; 125 g/Ha): 80
Herbicidal activity BEAVA ([4]; 250 g/Ha): 80
Herbicidal activity BEAVA ([4]; 500 g/Ha): 100
Herbicidal activity BRSNN ([5]; 15 g/Ha): 80
Herbicidal activity BRSNN ([5]; 30 g/Ha): 90
Herbicidal activity BRSNN ([5]; 60 g/Ha): 90
Herbicidal activity BRSNN ([5]; 125 g/Ha): 90
Herbicidal activity BRSNN ([5]; 250 g/Ha): 90
Herbicidal activity BRSNN ([5]; 500 g/Ha): 90
Herbicidal activity BROTE ([6]; 15 g/Ha): 0
Herbicidal activity BROTE ([6]; 30 g/Ha): 0
Herbicidal activity BROTE ([6]; 60 g/Ha): 10
Herbicidal activity BROTE ([6]; 125 g/Ha): 20
Herbicidal activity BROTE ([6]; 250 g/Ha): 40
Herbicidal activity BROTE ([6]; 500 g/Ha): 70
Herbicidal activity CHEAL ([7]; 15 g/Ha): 60
Herbicidal activity CHEAL ([7]; 30 g/Ha): 90
Herbicidal activity CHEAL ([7]; 60 g/Ha): 90
Herbicidal activity CHEAL ([7]; 125 g/Ha): 90
Herbicidal activity CHEAL ([7]; 250 g/Ha): 90
Herbicidal activity CHEAL ([7]; 500 g/Ha): 100
Herbicidal activity on a 0-100 scale, ECHCG ([8]; 15 g/Ha): 70
Herbicidal activity on a 0-100 scale, ECHCG ([8]; 30 g/Ha): 80
Herbicidal activity on a 0-100 scale, ECHCG ([8]; 60 g/Ha): 80
Herbicidal activity on a 0-100 scale, ECHCG ([8]; 125 g/Ha): 90
Herbicidal activity on a 0-100 scale, ECHCG ([8]; 250 g/Ha): 90
Herbicidal activity on a 0-100 scale, ECHCG ([8]; 500 g/Ha): 100
Herbicidal activity on a 0-100 scale, ELEIN ([9]; 15 g/Ha): 0
Herbicidal activity on a 0-100 scale, ELEIN ([9]; 30 g/Ha): 40
Herbicidal activity on a 0-100 scale, ELEIN ([9]; 60 g/Ha): 40
Herbicidal activity on a 0-100 scale, ELEIN ([9]; 125 g/Ha): 60
Herbicidal activity on a 0-100 scale, ELEIN ([9]; 250 g/Ha): 80
Herbicidal activity on a 0-100 scale, ELEIN ([9]; 500 g/Ha): 80
Herbicidal activity EPHHL ([10]; 15 g/Ha): 70
Herbicidal activity EPHHL ([10]; 30 g/Ha): 90
Herbicidal activity EPHHL ([10]; 60 g/Ha): 90
Herbicidal activity EPHHL ([10]; 125 g/Ha): 90
Herbicidal activity EPHHL ([10]; 250 g/Ha): 100
Herbicidal activity EPHHL ([10]; 500 g/Ha): 100
Herbicidal activity GLXMA ([11]; 15 g/Ha): 70
Herbicidal activity on a 0-100 scale, GLXMA ([11]; 15 g/Ha): 70
Herbicidal activity GLXMA ([11]; 30 g/Ha): 80
Herbicidal activity on a 0-100 scale, GLXMA ([11]; 30 g/Ha): 80
Herbicidal activity GLXMA ([11]; 60 g/Ha): 90
Herbicidal activity on a 0-100 scale, GLXMA ([11]; 60 g/Ha): 90
Herbicidal activity GLXMA ([11]; 125 g/Ha): 90
Herbicidal activity on a 0-100 scale, GLXMA ([11]; 125 g/Ha): 90
Herbicidal activity GLXMA ([11]; 250 g/Ha): 100
Herbicidal activity on a 0-100 scale, GLXMA ([11]; 250 g/Ha): 100
Herbicidal activity GLXMA ([11]; 500 g/Ha): 100
Herbicidal activity on a 0-100 scale, GLXMA ([11]; 500 g/Ha): 100
Herbicidal activity IPOHE ([12]; 30 g/Ha): 100
Herbicidal activity IPOHE ([12]; 60 g/Ha): 100
Herbicidal activity IPOHE ([12]; 125 g/Ha): 100
Herbicidal activity IPOHE ([12]; 250 g/Ha): 100
Herbicidal activity IPOHE ([12]; 500 g/Ha): 100
Herbicidal activity on a 0-100 scale, PANMI ([13]; 15 g/Ha): 0
Herbicidal activity on a 0-100 scale, PANMI ([13]; 30 g/Ha): 70
Herbicidal activity on a 0-100 scale, PANMI ([13]; 60 g/Ha): 80
Herbicidal activity on a 0-100 scale, PANMI ([13]; 125 g/Ha): 90
Herbicidal activity on a 0-100 scale, PANMI ([13]; 250 g/Ha): 90
Herbicidal activity on a 0-100 scale, PANMI ([13]; 500 g/Ha): 100
Herbicidal activity SIDSP ([14]; 15 g/Ha): 80
Herbicidal activity SIDSP ([14]; 30 g/Ha): 90
Herbicidal activity SIDSP ([14]; 60 g/Ha): 90
Herbicidal activity SIDSP ([14]; 125 g/Ha): 100
Herbicidal activity SIDSP ([14]; 250 g/Ha): 100
Herbicidal activity SIDSP ([14]; 500 g/Ha): 100
Herbicidal activity on a 0-100 scale, SORVU ([15]; 15 g/Ha): 0
Herbicidal activity on a 0-100 scale, SORVU ([15]; 30 g/Ha): 10
Herbicidal activity on a 0-100 scale, SORVU ([15]; 60 g/Ha): 70
Herbicidal activity on a 0-100 scale, SORVU ([15]; 125 g/Ha): 80
Herbicidal activity on a 0-100 scale, SORVU ([15]; 250 g/Ha): 90
Herbicidal activity on a 0-100 scale, SORVU ([15]; 500 g/Ha): 100
Herbicidal activity STEME ([16]; 15 g/Ha): 90
Herbicidal activity STEME ([16]; 30 g/Ha): 90
Herbicidal activity STEME ([16]; 60 g/Ha): 90
Herbicidal activity STEME ([16]; 125 g/Ha): 90
Herbicidal activity STEME ([16]; 250 g/Ha): 90
Herbicidal activity STEME ([16]; 500 g/Ha): 100
Herbicidal activity VERPE ([17]; 15 g/Ha): 80
Herbicidal activity VERPE ([17]; 30 g/Ha): 80
Herbicidal activity VERPE ([17]; 60 g/Ha): 90
Herbicidal activity VERPE ([17]; 125 g/Ha): 80
Herbicidal activity VERPE ([17]; 250 g/Ha): 100
Herbicidal activity VERPE ([17]; 500 g/Ha): 100
Herbicidal activity XANST ([18]; 60 g/Ha): 80
Herbicidal activity XANST ([18]; 125 g/Ha): 80
Herbicidal activity XANST ([18]; 500 g/Ha): 100
